# Biological target: Aβ42 (Homo sapiens, UniProt P05067)
# Assay: Th-T (thioflavin-T) assay of Aβ42 aggregation
# Format: biochemical
# Aβ42, sequence (P05067 672-713): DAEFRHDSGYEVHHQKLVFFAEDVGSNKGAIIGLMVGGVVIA
smiles,measurement,setting,value
C=C1CC[C@@H]2[C@](C)(CC[C@H]3O[C@H](C=C(C)C)C[C@@]23C)[C@@H]1Cc1c(OC)oc(CO)c(C)c1=O [Compound 20],"Fig. 7a Th-T reading, mean of three wells","column suffix _20, reading M101",3.25
same,"Fig. 7a Th-T reading, mean of three wells","column suffix _20, reading M102",3.237
same,"Fig. 7a Th-T reading, mean of three wells","column suffix _20, reading M103",3.23
same,"Fig. 7a Th-T reading, mean of three wells","column suffix _20, reading M104",3.246
same,"Fig. 7a Th-T reading, mean of three wells","column suffix _20, reading M105",3.269
same,"Fig. 7a Th-T reading, mean of three wells","column suffix _20, reading M106",3.248
same,"Th-T fluorescence, mean of three wells (Fig. 7a)","column suffix _50, measurement M19",2.199
same,"Th-T fluorescence, mean of three wells (Fig. 7a)","column suffix _50, measurement M20",2.217
same,"Th-T fluorescence, mean of three wells (Fig. 7a)","column suffix _50, measurement M21",2.224
same,"Th-T fluorescence, mean of three wells (Fig. 7a)","column suffix _50, measurement M22",2.216
same,"Th-T fluorescence, mean of three wells (Fig. 7a)","column suffix _50, measurement M23",2.205
same,"Th-T fluorescence, mean of three wells (Fig. 7a)","column suffix _50, measurement M24",2.2076
same,"Th-T fluorescence, mean of three wells (Fig. 7a)","column suffix _50, measurement M25",2.21
same,"Th-T fluorescence, mean of three wells (Fig. 7a)","column suffix _50, measurement M26",2.22
same,"Th-T fluorescence, mean of three wells (Fig. 7a)","column suffix _50, measurement M27",2.2221
same,"Th-T fluorescence, mean of three wells (Fig. 7a)","column suffix _50, measurement M28",2.198
same,"Th-T fluorescence, mean of three wells (Fig. 7a)","column suffix _50, measurement M29",2.193
same,"Th-T assay signal, mean of three wells (Fig. 7a)","column suffix _50, reading M1",0.1908
same,"Th-T assay signal, mean of three wells (Fig. 7a)","column suffix _50, reading M2",0.1991
same,"Th-T assay signal, mean of three wells (Fig. 7a)","column suffix _50, reading M3",0.2032
same,"Th-T assay signal, mean of three wells (Fig. 7a)","column suffix _50, reading M4",0.2087
same,"Th-T assay signal, mean of three wells (Fig. 7a)","column suffix _50, reading M5",0.2172
same,"Th-T assay signal, mean of three wells (Fig. 7a)","column suffix _50, reading M6",0.2431
same,"Th-T assay signal, mean of three wells (Fig. 7a)","column suffix _50, reading M7",0.2722
same,"Th-T assay signal, mean of three wells (Fig. 7a)","column suffix _50, reading M8",0.3931
same,"Th-T assay signal, mean of three wells (Fig. 7a)","column suffix _50, reading M9",0.6726
same,"Th-T assay signal, mean of three wells (Fig. 7a)","column suffix _50, reading M10",1.1256
same,"Th-T assay signal, mean of three wells (Fig. 7a)","column suffix _50, reading M11",1.605
same,"Th-T assay signal, mean of three wells (Fig. 7a)","column suffix _50, reading M12",1.883
same,"Th-T assay signal, mean of three wells (Fig. 7a)","column suffix _50, reading M13",2.0174
same,"Th-T assay signal, mean of three wells (Fig. 7a)","column suffix _50, reading M14",2.101
same,"Th-T assay signal, mean of three wells (Fig. 7a)","column suffix _50, reading M15",2.147
same,"Th-T assay signal, mean of three wells (Fig. 7a)","column suffix _50, reading M16",2.173
same,"Th-T assay signal, mean of three wells (Fig. 7a)","column suffix _50, reading M17",2.183
same,"Th-T assay signal, mean of three wells (Fig. 7a)","column suffix _50, reading M18",2.192
same,"Fig. 7a Th-T reading, mean of three wells","column suffix _50, reading M85",2.067
same,"Fig. 7a Th-T reading, mean of three wells","column suffix _50, reading M86",2.077
same,"Fig. 7a Th-T reading, mean of three wells","column suffix _50, reading M87",2.082
same,"Fig. 7a Th-T reading, mean of three wells","column suffix _50, reading M88",2.092
same,"Fig. 7a Th-T reading, mean of three wells","column suffix _50, reading M89",2.095
same,"Fig. 7a Th-T reading, mean of three wells","column suffix _50, reading M90",2.096
same,"Fig. 7a Th-T reading, mean of three wells","column suffix _50, reading M91",2.085
same,"Fig. 7a Th-T reading, mean of three wells","column suffix _50, reading M92",2.089
same,"Fig. 7a Th-T reading, mean of three wells","column suffix _50, reading M93",2.088
same,"Fig. 7a Th-T reading, mean of three wells","column suffix _50, reading M94",2.094
same,"Fig. 7a Th-T reading, mean of three wells","column suffix _50, reading M95",2.0955
same,"Fig. 7a Th-T reading, mean of three wells","column suffix _50, reading M96",2.087
same,"Fig. 7a Th-T reading, mean of three wells","column suffix _50, reading M97",2.084
same,"Fig. 7a Th-T reading, mean of three wells","column suffix _50, reading M98",2.09
same,"Fig. 7a Th-T reading, mean of three wells","column suffix _50, reading M99",2.099
same,"Fig. 7a Th-T reading, mean of three wells","column suffix _50, reading M100",2.117
same,"Fig. 7a Th-T reading, mean of three wells","column suffix _50, reading M101",2.093
same,"Fig. 7a Th-T reading, mean of three wells","column suffix _50, reading M102",2.09
same,"Fig. 7a Th-T reading, mean of three wells","column suffix _50, reading M103",2.088
same,"Fig. 7a Th-T reading, mean of three wells","column suffix _50, reading M104",2.099
same,"Fig. 7a Th-T reading, mean of three wells","column suffix _50, reading M105",2.107
same,"Fig. 7a Th-T reading, mean of three wells","column suffix _50, reading M106",2.096
same,"Th-T fluorescence, mean of three wells","compound at 10, reading M41 of time course",3.473
same,"Th-T fluorescence, mean of three wells","compound at 10, reading M42 of time course",3.463
same,"Th-T fluorescence, mean of three wells","compound at 10, reading M43 of time course",3.47
same,"Th-T fluorescence, mean of three wells","compound at 10, reading M44 of time course",3.466
same,"Th-T fluorescence, mean of three wells","compound at 10, reading M45 of time course",3.48
same,"Th-T fluorescence, mean of three wells","compound at 10, reading M46 of time course",3.474
same,"Th-T fluorescence, mean of three wells","compound at 10, reading M47 of time course",3.473
same,"Th-T fluorescence, mean of three wells","compound at 10, reading M48 of time course",3.454
same,"Th-T fluorescence, mean of three wells","compound at 10, reading M49 of time course",3.4597
same,"Th-T fluorescence, mean of three wells","compound at 10, reading M50 of time course",3.479
same,"Th-T fluorescence, mean of three wells","compound at 10, reading M51 of time course",3.451
same,"Th-T fluorescence, mean of three wells","compound at 10, reading M52 of time course",3.467
same,"Th-T fluorescence, mean of three wells","compound at 10, reading M53 of time course",3.449
same,"Th-T fluorescence, mean of three wells","compound at 10, reading M54 of time course",3.468
same,"Th-T fluorescence, mean of three wells","compound at 10, reading M55 of time course",3.479
same,"Th-T fluorescence, mean of three wells","compound at 10, reading M56 of time course",3.4836
same,"Th-T fluorescence, mean of three wells","compound at 10, reading M57 of time course",3.456
same,"Th-T fluorescence, mean of three wells","compound at 10, reading M58 of time course",3.464
same,"Th-T fluorescence, mean of three wells","compound at 10, reading M59 of time course",3.461
same,"Th-T fluorescence, mean of three wells","compound at 10, reading M60 of time course",3.452
same,"Th-T fluorescence, mean of three wells","compound at 10, reading M61 of time course",3.461
same,"Th-T fluorescence, mean of three wells","compound at 10, reading M62 of time course",3.452
same,"Th-T fluorescence, mean of three wells","compound at 20, reading M41 of time course",3.421
same,"Th-T fluorescence, mean of three wells","compound at 20, reading M42 of time course",3.4495
same,"Th-T fluorescence, mean of three wells","compound at 20, reading M43 of time course",3.4108
same,"Th-T fluorescence, mean of three wells","compound at 20, reading M44 of time course",3.412
same,"Th-T fluorescence, mean of three wells","compound at 20, reading M45 of time course",3.402
same,"Th-T fluorescence, mean of three wells","compound at 20, reading M46 of time course",3.446
same,"Th-T fluorescence, mean of three wells","compound at 20, reading M47 of time course",3.447
same,"Th-T fluorescence, mean of three wells","compound at 20, reading M48 of time course",3.449
same,"Th-T fluorescence, mean of three wells","compound at 20, reading M49 of time course",3.413
same,"Th-T fluorescence, mean of three wells","compound at 20, reading M50 of time course",3.443
same,"Th-T fluorescence, mean of three wells","compound at 20, reading M51 of time course",3.447
same,"Th-T fluorescence, mean of three wells","compound at 20, reading M52 of time course",3.466
same,"Th-T fluorescence, mean of three wells","compound at 20, reading M53 of time course",3.442
same,"Th-T fluorescence, mean of three wells","compound at 20, reading M54 of time course",3.43
same,"Th-T fluorescence, mean of three wells","compound at 20, reading M55 of time course",3.418
same,"Th-T fluorescence, mean of three wells","compound at 20, reading M56 of time course",3.449
same,"Th-T fluorescence, mean of three wells","compound at 20, reading M57 of time course",3.4659
same,"Th-T fluorescence, mean of three wells","compound at 20, reading M58 of time course",3.449
same,"Th-T fluorescence, mean of three wells","compound at 20, reading M59 of time course",3.427
same,"Th-T fluorescence, mean of three wells","compound at 20, reading M60 of time course",3.432
same,"Th-T fluorescence, mean of three wells","compound at 20, reading M61 of time course",3.433
same,"Th-T fluorescence, mean of three wells","compound at 20, reading M62 of time course",3.454
same,"Th-T fluorescence, mean of three wells","compound at 50, reading M41 of time course",2.136
same,"Th-T fluorescence, mean of three wells","compound at 50, reading M42 of time course",2.134
same,"Th-T fluorescence, mean of three wells","compound at 50, reading M43 of time course",2.091
same,"Th-T fluorescence, mean of three wells","compound at 50, reading M44 of time course",2.118
same,"Th-T fluorescence, mean of three wells","compound at 50, reading M45 of time course",2.11
same,"Th-T fluorescence, mean of three wells","compound at 50, reading M46 of time course",2.107
same,"Th-T fluorescence, mean of three wells","compound at 50, reading M47 of time course",2.113
same,"Th-T fluorescence, mean of three wells","compound at 50, reading M48 of time course",2.125
same,"Th-T fluorescence, mean of three wells","compound at 50, reading M49 of time course",2.092
same,"Th-T fluorescence, mean of three wells","compound at 50, reading M50 of time course",2.091
same,"Th-T fluorescence, mean of three wells","compound at 50, reading M51 of time course",2.089
same,"Th-T fluorescence, mean of three wells","compound at 50, reading M52 of time course",2.103
same,"Th-T fluorescence, mean of three wells","compound at 50, reading M53 of time course",2.105

# From article PMC7156458, “Synthetic biology based construction of biological activity-related library of fungal decalin-containing diterpenoid pyrones” (Nature Communications, 2020)
